Reference: patent US9382330B2, “Pdia4, target of cytopiloyne derivatives, for tumor diagnosis and treatment” (ACADEMIA SINICA, priority 2010, dated 2016)
“Also recorded” adds a separate entry of the source. Read-outs that look alike come from different tables or passages of the source.

Key:
GST-Pdia4 [1] = target: T1, GST-Pdia4 (Homo sapiens, UniProt P13667); assay: Pull down assay of GST fusion proteins with BCP (avidin-POD blot); assay type: binding; settings: 2-mercaptoethanol added to the incubation
T1 construct: made in house; host or cells: E. coli BL21 DE3 pLysS
T1 sequence (P13667 21-645): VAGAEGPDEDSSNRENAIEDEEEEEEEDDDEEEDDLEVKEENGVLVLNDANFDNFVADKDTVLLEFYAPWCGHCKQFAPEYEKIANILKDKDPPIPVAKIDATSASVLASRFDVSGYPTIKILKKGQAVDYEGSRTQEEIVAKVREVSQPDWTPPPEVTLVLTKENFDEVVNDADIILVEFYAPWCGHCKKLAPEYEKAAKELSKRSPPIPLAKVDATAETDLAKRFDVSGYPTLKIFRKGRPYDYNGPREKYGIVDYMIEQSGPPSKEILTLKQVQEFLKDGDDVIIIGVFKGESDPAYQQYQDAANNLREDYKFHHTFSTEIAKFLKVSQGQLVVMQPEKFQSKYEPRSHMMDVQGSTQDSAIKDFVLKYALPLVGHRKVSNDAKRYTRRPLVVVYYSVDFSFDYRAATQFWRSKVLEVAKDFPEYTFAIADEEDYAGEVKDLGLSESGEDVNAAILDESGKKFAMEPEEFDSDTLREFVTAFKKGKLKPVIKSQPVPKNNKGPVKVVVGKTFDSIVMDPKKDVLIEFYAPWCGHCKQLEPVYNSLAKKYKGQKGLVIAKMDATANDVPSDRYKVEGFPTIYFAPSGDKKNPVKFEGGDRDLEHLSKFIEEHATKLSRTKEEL
Protocol: (§1) pGEX4T3-Hspa5, pGEX4T3-Pdia4, and pGEX4T3-TecSH3 were obtained by cloning human Hspa5 cDNA, human Pdia4 cDNA and the SH3 domain of mouse Tec cDNA to a pGEX4T3 vector, respectively. GST fusion proteins were purified from the bacterial host E. coli BL21 DE3 pLysS, which harbored the above constructs, according to the manufacturer's instructions (Amersham Biosciences, NJ, USA). Glutathione agarose bead-bound GST fusion proteins (0.15 μg) were incubated with DMSO vehicle or BCP (0.026 μg) for overnight. The proteins were separated by SDS-PAGE and blotted with avidin-POD. For competition assays, CP (0.16 μg (10-fold) and 0.81 μm (50-fold)) or CPA (0.09 μg (10-fold) and 0.45 μm (50-fold)) was added to the above incubation. For interference assay, 2-mercaptoethanol (2.2 mg) was added to the incubation. To test effect of CPA on disulfide isomerase activity of GST-Pdia4, reduced BPTI (0.39 μg) was incubated with redox buffer in the presence of vehicle, 5.64 μg GST-Pdia4 or 5.64 μg GST-Pdia4 plus CPA (0.33 μg). Enzymatic activity of GST-Pdia4, shown as fraction remaining (%), was determined by the conversion of the reduced BPTI into disulfide intermediates as described (Satoh, M., et al. (2005) Cell Stress Chap. 10(3), 211-220).

tumor cell = settings: cited from earlier work
Jurkat cells [2] = assay: WST-1 assay (cell viability / growth inhibition); assay type: cell-based, human; settings: WST-1, 24 hour incubation
Protocol: WST-1 assays were performed to measure cell viability. Briefly, Jurkat cells (5×10^3) were grown in 100 μl per well. After 24 hour incubation with DMSO or CP derivatives, the cells were incubated with WST-1 at 37° C. for 30 minutes and characterized by 440 nm absorption. To stain BCP-bound proteins of Jurkat cells, 30 μM of DMSO, biotin and BCP was incubated with Jurkat cells for 24 hours, respectively. After washing, the cells underwent surface or intracellular staining with avidin-PE-TR (Caltag, Calif., USA), followed by fluorescence activated cell sorting (FACS) analysis. The FACS data were processed using FCS express 3.0 software (De Novo Inc, CA, USA).

Jurkat cells [3] = assay: Cell growth and death by counting living and dead cells with eosin Y; assay type: cell-based; settings: for Jurkat cell growth: indicated concentrations, 6 days
Protocol: (§2) FIGS. 1A-C Effect of cytopiloyne (CP) and cytopiloyne aglycone (CPA) on cell growth, death and proliferation. FIG. 1A-B are graphs showing effects of CP and CPA on growth and death of Jurkat cells. Jurkat cells were grown in RPMI medium in the presence of DMSO (−), CP and CPA at the indicated concentrations for 6 days. Numbers of living cells (FIG. 1A) and dead cells (FIG. 1B) were counted by using eosin Y and hematocytometer. Growth (%) is defined as 100% multiplied by the ratio of the living cell number with compound treatment to that with the control treatment. Death (%) is defined as 100% multiplied by the ratio of the dead cell number to a total of cells (both living and dead). FIG. 1C is a graph showing effect of CP and CPA on proliferation of Jurkat cells. Jurkat cells, which were already labeled with AFSE, were grown under the same condition as the Jurkat cells shown in FIGS. 1A-B. Mean fluorescent intensity (MFI) of the cells on days 0, 2, 4 and 6 were determined using FACS.
Jurkat cells were infected with different lentiviral particles 2 days prior to use. The cells were divided into 3 aliquots. One aliquot was tested for cell growth for 6 days and the number of live and dead cells was calculated using eosin Y. Another aliquot was stained with AFSE, monitored for cell proliferation for 6 days and followed byFACS analysis. Another aliquot was pulsed with 5-bromo-2-deoxyuridine (BrdU) for 30 minutes and chased for 0 to 48 hours. The cells underwent intracellular staining with anti-BrdU antibody and FACS analysis. The other aliquot was tested for caspase activity. Caspase 3/7 fluorescent substrate was incubated with 1 μg of total lysate and caspase activity, shown in relative light unit (RLU), was measured with Victor V luminescence counter. To evaluate in vivo tumor growth, lentivirally infected Jurkat cells (1×10^6) were subcutaneously inoculated into scid/beige mice. Tumor incidence, tumor size and survival rate of the tumor-bearing mice were scored.

Jurkat cells [4] = assay: AFSE cell proliferation assay (FACS); assay type: cell-based, human; settings: low doses, up to 6 days
Protocol: as §2
Jurkat cells were infected with different lentiviral particles 2 days prior to use. […] One aliquot was tested for cell growth for 6 days and the number of live and dead cells was calculated using eosin Y. Another aliquot was stained with AFSE, monitored for cell proliferation for 6 days and followed byFACS analysis. […] Tumor incidence, tumor size and survival rate of the tumor-bearing mice were scored.

GST-Pdia4 [5] = target: T1, GST-Pdia4; assay: Competition assay for binding of GST-Pdia4 and BCP; settings: 10-fold and 50-fold excess
Protocol: as §1

T cell = settings: cited from earlier work
[6] = tested on: TS/A, mammary gland carcinoma; assay: Cell death of TS/A mammary gland carcinoma; assay type: cell-based
GST-Pdia4 [7] = target: T1, GST-Pdia4; assay: MS/MS analysis of GST-Pdia4/CPA adduct; assay type: binding; settings: 24 hours, LC/MS/MS
Protocol: Band 1 were cut from the coomassie blue gel and subjected to in gel digestion. Briefly, the gel was dehydrated with acetonitrile, vacuum dried, and rehydrated with ammonium bicarbonate at 37° C. for 1 hour. After alkylation with iodoacetamide, the gel was suspended with 25 mM ammonium bicarbonate containing trypsin at 37° C. for 16 hours. Tryptic peptides were analyzed with LC-nanoESI-MS/MS system. Briefly, the peptides were trapped and desalted isocratically on an LC-Packings PepMap™ C18 μ-Precolumn™ Cartidge (300 μm i.d.×5 mm; Dionex, Calif., USA) for 2 minutes with 0.1% formic acid. The peptides were separated on a C18 capillary column (15 cm×75 μm i.d.) packed with 5 μm, Zorbax 300 SB C18 paticles (Micro-Tech Scientific, Calif., USA), eluted using a 40 minute fast gradient of 5% to 80% acetonitrile containing 0.1% formic acid and subjected to Micromass Q-TOF Ultima™ API mass spectrometer, equipped with an ESI source. After data acquisition, MS/MS spectra for the sample were combined and querred against non-redundant protein database using Mascot program (Matrix Science, MA, USA). For MS/MS analysis of GST-Pdia4 and GST-Pdia4/CPA adduct, GST-Pdia4 (200 μg) was incubated with DMSO or CPA (24 μg) for 24 hours. The proteins underwent LC/MS/MS analysis.

GST-Pdia4 [8] = target: T1, GST-Pdia4; assay: Disulfide isomerase activity of GST-Pdia4 with reduced BPTI; assay type: biochemical; settings: reduced BPTI substrate, redox buffer
Protocol: as §1

[9] = tested on: human umbilical vein endothelial cells; settings: cited from earlier work

## OCCS [2-mercaptoethanol]
GST-Pdia4 [1]
  interference of GST-Pdia4/BCP interaction by reducing agent: significantly diminished the interplay of GST-Pdia4 and BCP

## bacitricin
Tumor cell
  tumor cell death: cause tumor cell death

## CC#CC#CC#CC#CCCC(CO)O[C@@H]1O[C@H](CO)[C@@H](O)[C@H](O)[C@H]1O (some centres unmarked) [CP, cytopiloyne]
Jurkat cells [2]
  half maximal inhibitory concentration (IC50) for growth inhibition of Jurkat cells: 52.8 µg/mL
Jurkat cells [3]
  cytotoxicity at low doses: did not show significant cytotocxicity
  Jurkat cell growth: inhibited Jurkat cell growth in a dose-dependent manner
Jurkat cells [4]
  Jurkat cell proliferation: significantly suppressed Jurkat cell proliferation
GST-Pdia4 [5]
  interference with interaction between BCP and GST-Pdia4: could interfere with the interaction between BCP and GST-Pdia4 at a dose-dependent manner
T cell
  T cell proliferation: showed an inhibition of T cell proliferation

## CC#CC#CC#CC#CCCC(O)CO (centres unmarked) [CPA, cytopiloyne aglycone]
Jurkat cells [2]
  half maximal inhibitory concentration (IC50) for growth inhibition of Jurkat cells: 2.5 µg/mL
Jurkat cells [3]; CPA from 0.7 to 1.3 μg/ml
  cytotoxicity at low doses: did not show significant cytotocxicity
Jurkat cells [3]
  Jurkat cell growth: inhibited Jurkat cell growth in a dose-dependent manner
Jurkat cells [4]
  Jurkat cell proliferation: significantly suppressed Jurkat cell proliferation
[6]
  cell death of TS/A: induce cell death
GST-Pdia4 [5]
  interference with interaction between BCP and GST-Pdia4: could interfere with the interaction between BCP and GST-Pdia4 at a dose-dependent manner; also recorded: more effective for the interference than CP
GST-Pdia4 [7]
  covalent adduct of CPA on GST-Pdia4: adducted to two cysteine residues of the second CGHC motif of Pdia4
GST-Pdia4 [8]
  disulfide isomerase activity of GST-Pdia4: inhibited this activity
[9]
  cell death of human umbilical vein endothelial cells: promoted cell death
